Test results as given in patent US20240139125A1 (INDUSTRIAL COOPERATION FOUNDATION JEONBUK NATIONAL …, priority 2020, published 2024).
“Also recorded” adds a separate entry of the source.

Tests used:
MCF7 = assay: Cell proliferation/viability with BIA, IC50 after 3 days; assay type: cell-based; conditions: Homo sapiens, MCF7, 72 h; MCF cells, treatment for 3 days
[1] = tested on: HT1080, MCF7, MDA-MB-231 and SKBR3 cell lines; assay: Cell proliferation and viability of cell line panel with BIA; assay type: cell-based; conditions: 5 μM BIA
[2] = tested on: AKT serine phosphorylation (S473); assay: AKT phosphorylation by Western blotting; assay type: cell-based
Protocol: This is AKT signaling key to cancer cell growth, and BIA and its analogues tend to inhibit it. Only representative experimental results were presented. Data were expressed as mean±SD. After one-way ANOVA, Tukey's post hoc test is conducted.
After cell recovery, cell lytic buffer (10 mM Tris-Cl (pH 7.4), 5 mM EDTA, 130 mM NaCl, 1% Triton X-100) and protease inhibitor mix protease inhibitor cocktail (protease inhibitor cocktail and phosphatase inhibitor cocktail) were added and left at 4° C. for 30 minutes. After breaking the cells with ultrasound, they were centrifuged at 13,000× g at 4° C. for 30 minutes, and then the supernatant was taken, and the concentration was quantified using a protein quantification kit (Bio-Rad Laboratories, Hercules, CA, USA). 20 ug of the obtained protein was electrophoresis with polyacrylamide gel electrophoresis (SDS-PAGE) followed by electrotransfer to PVDF membrane (Bio-Rad). The membrane was blocked at room temperature for 1 hour with a TBS-T solution (20 mM Tris (pH 7.5), 137 mM NaCl, 0.05% Triton X-100) containing 5% skim milk. Then, after switching to a solution containing the primary antibody, it was reacted at 4° C. The membrane after the reaction was washed three times with TBS-T solution, reacted with a secondary antibody, and then luminesced using an ECL kit and autoradiography. […]

BI-1 (TMBIM6) = molecular target: T1, BI-1 (TMBIM6) (Homo sapiens, UniProt P55061); assay: G-CEPIAer ER lumen calcium indicator; assay type: cell-based; conditions: HT1080, 10 μM BIA, compared to untreated control cells
T1 construct: endogenous in cells; host or cells: HT1080 cells transfected only with the G-CEPIAer indicator plasmid
Protocol: FIG. 74B is a result of treating HT1080 cells with BIA 10 μM and observing the fluorescence intensity of G-CEPIAer designed to measure calcium concentration inside
Since BI-1 regulates mTORC2 activation through ER Ca2+ release, the above results confirmed whether BIA inhibits Ca2+ release from BI-1.
On the other hand, when BIA is treated, calcium inside ER increases because […] in ER inhibits calcium. This was expressed G-CEPIAer, which measures the calcium concentration inside ER, and metamorphed HT1080 cells using CEPIAer plasmid to create stable cells. This transfected cell can be used to detect only free calcium from ER via BI-1 (TMBIM6) based on the calcium channel-like nature of BI-1 (TMBIM6). By confirming the increase in fluorescence, it was possible to confirm the specificity of the BIA (see FIG. 74B).

[3] = tested on: HT1080, MCF7, MDA-MB-231 and SKBR3 cells; assay: Cell migration (Transwell, wound healing); assay type: cell-based
Protocol: Image (A) and quantification graph (B) (n=3 independent experiment).
FIG. […] The graph on the right quantifies migrated cells from BIA-treated cells normalized to control cells (n=3 independent experiments. Data were expressed in mean±SD. **p<0.01, ***p<0.001, two-tailed unpaired t-test simulation. The scale bar represents 15 μm.
It was used and checked. Cells were treated with trypsin, and serum and 2×10^4 cells were added to the upper chamber in DMEM, cells transported to the lower chamber via transwell for 12 hours were fixed and stained with crystal violet to perform migration analysis.

[4] = tested on: HT1080 and MDA-MB-231 cells; assay: Cell invasion assay; assay type: cell-based
Protocol: FIG. 65B is an image of an invasive cell in HT1080 and MDA-MB-231 cells treated with 2.0 μM BIA. The graph on the right quantifies invading cells from BIA-treated cells normalized to control cells (n=3 independent experiments). Data were expressed as mean±SD. **p<0.01, ***p<0.001, two-tailed unpaired t-test. The scale bar represents […].
Cells were moved through the polyethylene terephthalate membrane (BD Biosciences) of the insert for 12 hours, and then fixed, crystal violet staining was performed to measure the degree of invasion.
Cell invasion experiments were performed according to the method of the Invasion Assay Kit (corning, 3458). Put a cell culture insert into the 24-well cell culture plate, DMEM medium with 10% FBS added outside the insert , and no FBS added inside the insert. 2.0 μM BIA was added to HT1080 and MDA-MB-231 and incubated at 37° C. for 12˜24 hours. Removed the medium in the 24-well culture plate and the medium inside the insert Then, a cotton swab was used to remove the remaining cells in the insert. After fixing the insert in 4% formaldehyde solution, stain the cells that penetrate the bottom of the insert with crystal violet solution, wash it with tertiary distilled water, and then at room temperature Dried and dried inserts were observed under a microscope.

[5] = tested on: human breast cancer cells labeled with DiI dye; assay: Zebrafish tumor model; assay type: in vivo; conditions: 2 uM BIA, third day after transplantation
[6] = tested on: association between RICTOR and mTOR or between RICTOR and RPL19; assay: Proximity ligation assay in PANC-1 cells; assay type: cell-based; conditions: PLA
Description: The graph on the right quantifies the fine, bright points (n=5 independent experiment). The scale bar represents 20 μm. Data were expressed as mean±SD. **p<0.01, Bonferroni's post hoc test after binary ANOVA.

T1 sequence (P55061 whole entry): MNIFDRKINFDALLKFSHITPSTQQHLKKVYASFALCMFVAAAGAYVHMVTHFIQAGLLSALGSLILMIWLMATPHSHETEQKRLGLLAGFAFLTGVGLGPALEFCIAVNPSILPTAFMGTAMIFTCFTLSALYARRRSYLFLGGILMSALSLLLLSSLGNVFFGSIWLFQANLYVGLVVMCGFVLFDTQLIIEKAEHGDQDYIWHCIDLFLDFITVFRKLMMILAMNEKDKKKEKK

**Q.** Which IC50 (MCF7) does the source give for `Nc1ccccc1C(=O)/C=C/c1cccc([N+](=O)[O-])c1` [BIA, 2E-1-2-Aminophenyl-3-3-nitrophenyl-2-propen-1-one] here?
**A.** 2.6 ± 0.4 µM

**Q.** And the “proliferation and cell viability of all cell lines” value [1]?
**A.** inhibited; also recorded: suppressed

**Q.** And the “phosphorylation of AKT” value ([2]; BIA-treated cells, following loss of BI-1/mTORC2/ribosome binding)?
**A.** complete reduction

**Q.** What about the “AKT serine phosphorylation S473” value ([2]; HT1080 cells, 1 or 2 μM) of the same molecule?
**A.** inhibited

**Q.** What about the “phosphorylation of AKT” value ([2]; MDA-MB-231 cells, 1 or 2 μM) of the same molecule?
**A.** equally inhibited

**Q.** And the “phosphorylation of AKT” value ([2]; SKBR3 cells, 1 or 2 μM)?
**A.** equally inhibited

**Q.** What about the “G-CEPIAer fluorescence intensity (ER calcium)” value (BI-1 (TMBIM6)) of the same molecule?
**A.** increased

**Q.** What about the cell migration ([3]; HT1080, MCF7, MDA-MB-231 and SKBR3 cells, 2.0 μM BIA) of the same molecule?
**A.** reduced

**Q.** And the cell migration ([3]; HT1080 cells, FIGS. 64A and 64B (migration, wound healing 2 μM))?
**A.** reduced

**Q.** And the “migration of cancer cells” value ([3]; HT1080 fibrosarcoma cells, 10 μM, Transwell 12 hours)?
**A.** strongly inhibited

**Q.** What about the cell invasion ([4]; HT1080 fibrosarcoma cells, 12 hours) of the same molecule?
**A.** very pronounced cell invasion inhibition

**Q.** What about the cell invasion ([4]; MDA-MB-231 and HT1080 cells, 2.0 μM BIA) of the same molecule?
**A.** reduced

**Q.** And the “movement of tumor cells away from the primary site” value [5]?
**A.** remained at the injection site

**Q.** What about the “association between RICTOR and mTOR or between RICTOR and RPL19” value [6] of the same molecule?
**A.** reduced
